Patent US20250034216A1, “STEREOSELECTIVE COVALENT LIGANDS FOR ONCOGENIC AND IMMUNOLOGICAL PROTEINS” (The Scripps Research Institute, priority 2021, published 2025)

Experiments:
[1] = target: T1, CDKN2AIP_C516 (Homo sapiens, UniProt Q9NXV6); test: IA-DTB cysteine engagement; assay type: binding; conditions: 22Rv1 cells, 20 μM probe, 1 h, relative to DMSO
T1 construct: endogenous in cells; host or cells: 22Rv1
T1 sequence (Q9NXV6 1-580): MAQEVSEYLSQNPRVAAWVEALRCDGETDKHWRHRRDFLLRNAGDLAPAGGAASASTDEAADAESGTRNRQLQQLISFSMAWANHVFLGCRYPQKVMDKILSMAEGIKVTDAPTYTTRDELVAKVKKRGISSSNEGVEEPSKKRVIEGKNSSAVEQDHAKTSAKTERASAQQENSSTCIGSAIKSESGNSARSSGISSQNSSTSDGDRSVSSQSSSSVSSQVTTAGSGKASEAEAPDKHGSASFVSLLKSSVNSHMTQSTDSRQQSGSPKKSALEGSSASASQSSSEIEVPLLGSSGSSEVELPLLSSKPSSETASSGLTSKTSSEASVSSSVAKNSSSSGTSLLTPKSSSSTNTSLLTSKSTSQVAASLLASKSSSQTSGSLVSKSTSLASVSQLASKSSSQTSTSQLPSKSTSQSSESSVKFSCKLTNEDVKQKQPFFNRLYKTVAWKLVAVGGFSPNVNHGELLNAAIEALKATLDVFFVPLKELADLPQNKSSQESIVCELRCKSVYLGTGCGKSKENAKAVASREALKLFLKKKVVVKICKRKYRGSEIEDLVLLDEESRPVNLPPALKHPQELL
Method in brief: (§1)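 Probe-exposed cells were lysed, IA-DTB-labeled, trypsinized and streptavidin-enriched. Multiplexed TMT quantitation gave engagement ratios versus DMSO, with non-tryptic peptides excluded and intensities normalized to median summed signal.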

[2] = target: T2, ABCB8_C461 (Homo sapiens, UniProt Q9NUT2); test: IA-DTB cysteine engagement; assay type: binding; conditions: 22Rv1 cells, 20 μM probe, 1 h, relative to DMSO
T2 construct: endogenous in cells; host or cells: 22Rv1
T2 sequence (Q9NUT2 26-735): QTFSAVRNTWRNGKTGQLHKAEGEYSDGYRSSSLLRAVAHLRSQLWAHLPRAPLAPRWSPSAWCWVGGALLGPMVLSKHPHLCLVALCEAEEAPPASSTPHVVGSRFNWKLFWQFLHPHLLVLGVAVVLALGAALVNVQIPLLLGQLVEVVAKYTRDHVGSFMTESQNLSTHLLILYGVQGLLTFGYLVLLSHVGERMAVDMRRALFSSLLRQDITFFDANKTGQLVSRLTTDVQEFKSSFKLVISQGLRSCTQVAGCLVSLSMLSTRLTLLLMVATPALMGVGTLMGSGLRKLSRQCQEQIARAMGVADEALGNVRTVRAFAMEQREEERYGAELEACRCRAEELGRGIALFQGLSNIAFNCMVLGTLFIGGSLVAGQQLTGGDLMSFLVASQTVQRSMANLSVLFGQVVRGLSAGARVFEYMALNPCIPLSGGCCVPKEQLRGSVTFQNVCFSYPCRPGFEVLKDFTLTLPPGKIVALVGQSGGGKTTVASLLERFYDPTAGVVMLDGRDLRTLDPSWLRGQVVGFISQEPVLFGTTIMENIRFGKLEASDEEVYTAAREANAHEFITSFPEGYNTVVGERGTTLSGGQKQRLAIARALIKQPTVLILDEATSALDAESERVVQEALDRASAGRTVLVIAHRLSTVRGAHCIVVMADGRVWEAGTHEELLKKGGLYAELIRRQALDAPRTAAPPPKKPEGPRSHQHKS
Method in brief: as §1

% engagement CDKN2AIP_C516 [1] [%]	% engagement ABCB8_C461 [2] [%]	SMILES
18.75	66.5	C=CC(=O)N1C[C@H](c2ccc(Br)cc2)[C@H]1C(=O)Nc1cccc2cccnc12 [MY-3B, (2S,3S)-1-acryloyl-3-(4-bromophenyl)-N-(quinolin-8-yl)azetidine-2-carboxamide]
24	0	C=CC(=O)N1C[C@H](c2ccc(Br)cc2)[C@@H]1C(=O)Nc1cccc2cccnc12 [MY-1B, (2R,3S)-1-acryloyl-3-(4-bromophenyl)-N-(quinolin-8-yl)azetidine-2-carboxamide]
12.75	32.5	C=CC(=O)N1C[C@H](c2ccc(Br)cc2)[C@H]1C(=O)Nc1cccc2cccnc12 [MY-3A, (2S,3S)-1-acryloyl-3-(4-bromophenyl)-N-(quinolin-8-yl)azetidine-2-carboxamide]
66.5	−3	C=CC(=O)N1C[C@@H](c2ccc(Br)cc2)[C@H]1C(=O)Nc1cccc2cccnc12 [MY-1A, (2S,3R)-1-acryloyl-3-(4-bromophenyl)-N-(quinolin-8-yl)azetidine-2-carboxamide]
